Experimental data reported in patent US20230365927A1, “COMPOSITION AND METHOD FOR […] NON-NEURONAL CELLS INTO NEURONS” (INSTITUTE OF ZOOLOGY, CHINESE ACADEMY OF SCIENCES, priority 2020, published 2023).

Test system: human foreskin fibroblasts (HFF1y, Beijing Stem Cell Bank)
Assay: Transdifferentiation of human foreskin fibroblasts into neurons in vitro (induction culture solution, then mature culture solution)
Format: cell-based
Conditions: for rank of gene expression level of neuronal markers (MAPT and MAP2) by myosin inhibitor in the culture solutions: induction 7 days, mature solution (with isoxazole) 7 days, Examples 8-12
Protocol: After removing the fibronectin solution, the human foreskin fibroblasts (HFF1y, Beijing Stem Cell Bank) were evenly inoculated at 2×10^6 cells per vessel, culturing with basal medium (high glucose DMEM (Gibco, C12430500BT) plus 10% fetal bovine serum (Gibco, 16000-044)) for 12 hours. After removing the basal medium, the cells were washed with PBS.
An induction culture solution was added to the HFF1y vessel after undergoing the above treatment to culture for 1-7 days.
After the above induction culture for 1-7 days, a mature culture solution was added to HFF1y to culture for 7-45 days.

[1] = induction solution without Ble 7 days, then mature solution with ISX9 and without Ble 7 days

| SMILES | cell morphology (micrograph) [1] | expressions of canonical neuronal markers (GFAP, TUJ1, MAP2, MAPT, STMN1, NCAM) and synapse-related proteins (NEFH, PSD95, SYN1, SYT) [1] | gene expression of fibroblast marker FSP1 [1] | gene expression of neural transcription factors (ASCL1, BRN2, NEUROD1) [1] | rank of gene expression level of neuronal markers (MAPT and MAP2) by myosin inhibitor in the culture solutions | RNA-seq, GO cluster analysis of up-regulated genes (induction culture system comprising only Ble, p<0.05) | cell morphology after induction culture solution only (induction solution 25 μM Ble, 1-7 days, no isoxazole) |
| --- | --- | --- | --- | --- | --- | --- | --- |
| O=C(NC1CC1)c1cc(-c2cccs2)on1 [ISX9, isoxazole 9] | do not appear neuron-like morphology | significantly up-regulated | significantly down-regulated | up-regulated |  |  |  |
| Cc1ccc2c(c1)C(=O)[C@]1(OC(=O)c3ccccc3)CCN(c3ccccc3)C1=N2 [Ble-OB, (−)-Blebbistatin O-Benzoate] |  |  |  |  | third |  |  |
| Cc1ccc2c(c1)C(=O)[C@]1(O)CCN(c3ccccc3)C1=N2 [Ble, (−)-Blebbistatin] |  |  |  |  | highest | up-regulated genes in induced cells were enriched in the neuronal fate-related pathways | obvious neuronal morphology, small and round cell bodies, and rich and long synapses |
